The source of these data is patent US9381175B2, “Method for treating Chikungunya virus infection” (priority 2014, dated 2016).

In data set [1] the test system is cell fusion of Sf21 cells infected with CS-WT viruses (CHIKV). In words: Cell fusion assay, Sf21 cells infected with recombinant baculovirus CS-WT. The note with it: for inhibition of cell fusion induced by CS-WT infection, primary screening: Sf21 cells, screening of drug library, antiviral agents and synthetic peptides, data not shown; for inhibition of cell fusion in CS-WT infected Sf21 cells: 5 mg/mL, 2 hours, pH 5.8, FIG. 11; for inhibition of the membrane fusion of Chikungunya viruses (summary of screening result): bicistronic baculovirus expression system in Sf21 cells.

The test system of data set [2] is CHIKV. Briefly: Immunofluorescence assay of CHIKV infection in BHK-21 cells. The data set is classed as cell-based, Chikungunya virus.
The test system of a further data set is BHK-21 cells. In words: Cytotoxicity assay (crystal violet). The data set is classed as cell-based. The following applies: 1,000 μg/ml, BHK-21, 2 days, crystal violet OD 540, FIG. 18 left panel. As for the experimental part:
10^5 BHK-21 cells per well of 96-well plate were cultured with 2% FCS DMEM. For cykotoxicity assay, cells were cultured in the presence or absence of drug at various concentrations in duplication for 2 days. For cell protection assay, cells were infected with CHIKV at moi of 0.05 in the presence or absence of drugs at various concentrations in duplication for 2 days. Cells were then stained with 0.1% crystal violet solution to observe clearance of the cell monolayer caused by the cytotoxic or cytopathic effect. Crystal violet was quantified by optical density (OD) 540.

Data set [3] concerns CHIKV. In words: Cell protection assay against CHIKV infection (crystal violet). The data set is classed as cell-based, Chikungunya virus. The note with it: BHK-21, moi 0.05, 2 days, FIG. 18.
Data set [4] deals with CHIKV. Briefly: Western blot of CHIKV structural protein production in BHK-21 cells. The following applies: FIG. 14. On the technique in general: A western blot detects proteins with antibodies after separation by electrophoresis.
The test system of data set [5] is cell fusion of Sf21 cells infected with VS-TC83 (VEEV-TC83) viruses. The data set is classed as cell-based, Venezuelan equine encephalitis virus. The following applies: for inhibition of fusion (fusion index) of Sf21 cells infected with VS-TC83 viruses: pH 5.8.
A further data set relates to VEEV-TC83. It is filed as cell-based, Venezuelan equine encephalitis virus.

On to `O=C1[C@H](CC[C@H](O)c2ccc(F)cc2)[C@@H](c2ccc(O)cc2)N1c1ccc(F)cc1` [ezetimibe], for which the “inhibition of cell fusion induced by CS-WT infection, primary screening” value (“inhibition … primary screening” below) in data set [1] is “failed to inhibit the cell fusion”.

In the case of `NC(=O)c1ncn([C@@H]2O[C@H](CO)[C@@H](O)[C@H]2O)n1` [ribavirin], the “inhibition of CHIKV infection in vitro (E2 immunofluorescence), comparison with suramin” value with CHIKV [2] (12.5 μg/ml, BHK-21, M.O.I. 1, 20 hours, FIG. 15) is “inhibition efficacy of suramin is higher than that of ribavirin”.

As to `Cc1ccc(C(=O)Nc2ccc(S(=O)(=O)O)c3cc(S(=O)(=O)O)cc(S(=O)(=O)O)c23)cc1NC(=O)c1cccc(NC(=O)Nc2cccc(C(=O)Nc3cc(C(=O)Nc4ccc(S(=O)(=O)O)c5cc(S(=O)(=O)O)cc(S(=O)(=O)O)c45)ccc3C)c2)c1` [suramin], the “inhibition of CHIKV infection in vitro (E2 immunofluorescence)” value with CHIKV [2] (175 μM (2.5 mg/mL), BHK-21, M.O.I. 1, 20 hours, FIG. 15) is “inhibit CHIKV infection in vitro”. In addition, the “time-of-addition: stage in which the inhibition activity takes place” value in the data set on CHIKV [2] (5 mg/mL (350 μM), immunofluorescence, FIG. 17 panels A-C) is given as 0-2 hours post infection. Moreover, the “time-of-addition: inhibitory effect on addition at a later stage” value with CHIKV [2] (5 mg/mL (350 μM), immunofluorescence, FIG. 17 panels D-F) was “almost no inhibitory effect”. The “in vitro inhibition efficacy against CHIKV, dose dependence” value in the data set on CHIKV [2] (BHK-21, 2,000 PFU CHIKV, 20 hours, FIG. 16) is listed as “increases as the concentration of suramin increases”. In addition, the “in vitro inhibitory effect against CHIKV” value with CHIKV [2] (dose of less than 44 μM, FIG. 16 panel D) is reported as “marginal inhibitory effect”. In addition, in the data set on BHK-21 cells, the cytotoxicity entry is reported as “minimal cytotoxicity”. For the same molecule, in the data set with CHIKV [3], the “concentrations at which the cells are significantly protected from CHIKV infection” value is on record as 15.6-1,000 μg/ml and the “protection from the cytopathic effect of CHIKV infection” value is recorded as “protects BHK-21 cells from the cytopathic effect”. Also, the “inhibitory effect on the production of the structural proteins of CHIKV” value in the data set on CHIKV [4] (44 μM, BHK-21 cells) is listed as “only marginal inhibitory effect”. Further, the “inhibitory effect on the production of the structural proteins of CHIKV, dose dependence” value in the data set on CHIKV [4] (BHK-21 cells, 10,000 PFU CHIKV, 20 hours) is listed as “dose-dependency of the inhibitory effect”. The “inhibitory effect on cell fusion (fusion index)” value in data set [1] (55 μM, FIG. 13) is recorded as “minimal”. Also, in data set [1], the “inhibition of cell fusion in CS-WT infected Sf21 cells” value was “remarkably inhibited the cell fusion”; the “inhibition … primary screening” value is reported as “substantially inhibited the cell fusion”; the “inhibition of the membrane fusion of Chikungunya viruses (summary of screening result)” value is listed as “block the membrane fusion”. Also, the “inhibitory efficacy on cell fusion (fusion index), dose dependence” value in data set [1] (3,500, 875, 219 or 55 μM, FIG. 12/13) was “inhibitory efficacy of suramin increases as the concentration of suramin increases”.

Consider carrageenan, for which the “inhibition … primary screening” value in data set [1] was “failed to inhibit the cell fusion”.

As for chondroitin sulfate, the “inhibition of cell fusion in CS-WT infected Sf21 cells” value in data set [1] was “did not substantially inhibit the cell fusion”.

In the case of dextran sulfate, in data set [5], the “inhibition of cell fusion induced by VS-TC83 virus, dose dependence” value is “inhibit the cell fusion induced by VS-TC83 virus in a dose-dependent manner”; the “inhibition of the membrane fusion of Venezuelan equine encephalitis virus (summary of screening result)” value is reported as “can inhibit the membrane fusion”; the “inhibition of fusion (fusion index) of Sf21 cells infected with VS-TC83 viruses” value was “substantially inhibit the fusion”. Also, the “inhibition of VEEV-TC83 infection” value with VEEV-TC83 is reported as “elicited dose-dependent inhibition”. For the same molecule, in data set [1], the “inhibition of the membrane fusion of Chikungunya viruses (summary of screening result)” value is recorded as “not effective to inhibit the membrane fusion”.

Consider heparin, for which, in data set [5], the “inhibition of cell fusion induced by VS-TC83 virus, dose dependence” value is given as “inhibit the cell fusion induced by VS-TC83 virus in a dose-dependent manner”; the “inhibition of the membrane fusion of Venezuelan equine encephalitis virus (summary of screening result)” value is reported as “can inhibit the membrane fusion”; the “inhibition of fusion (fusion index) of Sf21 cells infected with VS-TC83 viruses” value was “substantially inhibit the fusion”. Besides, in the data set on VEEV-TC83, the “inhibition of VEEV-TC83 infection” value is “elicited dose-dependent inhibition”. The “inhibition of the membrane fusion of Chikungunya viruses (summary of screening result)” value in data set [1] is recorded as “not effective to inhibit the membrane fusion”.
